What was measured:
[1] = Preliminary pharmacokinetic evaluation in cynomolgus monkeys (plasma, LC-MS); type: in vivo; conditions: for half-life: cynomolgus monkey, male cynomolgus monkeys, subcutaneously (SC), 0.2 mg/kg, plasma; for half-lives: cynomolgus monkeys, administered subcutaneously
Protocol: Among the above compounds, the principle of modification for long-acting was essentially the same.
The test animals were male cynomolgus monkeys. Two animals were used for each compound. The compounds were administered subcutaneously at a dose of 0.2 mg/kg. Blood samples were collected via intravenous sampling prior to administration (0 h) and at 1 h, 2 h, 3 h, 4 h, 8 h, 12 h, 18 h, 24 h, 48 h, 96 h, 144 h, and 168 h after administration. Plasma samples were obtained by centrifugation. The plasma concentrations of the compounds were respectively determined by liquid chromatography - mass spectrometry (LC-MS).

[2] = target: T1, GLP-1R (Homo sapiens, UniProt P43220); experiment: GLP-1 activity test (cAMP, chemiluminescence, CHO-K1 cell line stably expressing GLP-1R); type: cell-based; conditions: relative luminescence units, read-out: GLP-1 activity [EC50(pmol)]
T1 construct: expressed in transfected cells; host or cells: CHO-K1
T1 sequence (P43220 24-463, species assumed): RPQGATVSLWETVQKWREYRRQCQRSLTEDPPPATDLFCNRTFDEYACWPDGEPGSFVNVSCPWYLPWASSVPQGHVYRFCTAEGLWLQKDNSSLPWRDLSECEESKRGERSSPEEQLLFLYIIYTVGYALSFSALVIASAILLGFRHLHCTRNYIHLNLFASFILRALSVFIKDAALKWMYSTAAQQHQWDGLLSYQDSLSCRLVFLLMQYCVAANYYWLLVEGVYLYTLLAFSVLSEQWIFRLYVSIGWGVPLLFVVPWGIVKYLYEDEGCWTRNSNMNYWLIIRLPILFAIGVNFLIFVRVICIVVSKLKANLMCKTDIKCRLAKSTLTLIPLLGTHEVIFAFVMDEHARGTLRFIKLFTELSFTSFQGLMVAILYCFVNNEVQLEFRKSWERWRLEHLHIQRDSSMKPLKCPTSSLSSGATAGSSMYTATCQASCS
Protocol: (§1) Upon stimulation by a specific agonist, GLP-1R activates the intracellular adenylate cyclase signaling pathway, resulting in an increase in cAMP levels and ultimately leading to insulin production and secretion. A cell line stably transfected with GLP-1R was stimulated with test compounds, thereby rapidly increasing intracellular cAMP levels. The relative luminescence units (RLU) of cells stimulated at various concentrations were measured by a chemiluminescence method, and the EC50 value of the agonist was calculated accordingly. This activity test method is currently a commonly used method for evaluating GLP-1 receptor agonist activity both domestically and internationally.
A CHO-K1 cell line stably expressing GLP-1R was used. The stable cells were stimulated with agonists at different concentrations, and the relative luminescence units after stimulation at each concentration were measured to calculate the EC50 value of the agonist.

[3] = target: T2, GCG-R (Homo sapiens, UniProt P47871); experiment: GCG activity test (cAMP, chemiluminescence, CHO-K1 cell line stably expressing GCG-R); type: cell-based; conditions: relative luminescence units, read-out: GCG activity [EC50(nmol)]
T2 construct: expressed in transfected cells; host or cells: CHO-K1
T2 sequence (P47871 26-477, species assumed): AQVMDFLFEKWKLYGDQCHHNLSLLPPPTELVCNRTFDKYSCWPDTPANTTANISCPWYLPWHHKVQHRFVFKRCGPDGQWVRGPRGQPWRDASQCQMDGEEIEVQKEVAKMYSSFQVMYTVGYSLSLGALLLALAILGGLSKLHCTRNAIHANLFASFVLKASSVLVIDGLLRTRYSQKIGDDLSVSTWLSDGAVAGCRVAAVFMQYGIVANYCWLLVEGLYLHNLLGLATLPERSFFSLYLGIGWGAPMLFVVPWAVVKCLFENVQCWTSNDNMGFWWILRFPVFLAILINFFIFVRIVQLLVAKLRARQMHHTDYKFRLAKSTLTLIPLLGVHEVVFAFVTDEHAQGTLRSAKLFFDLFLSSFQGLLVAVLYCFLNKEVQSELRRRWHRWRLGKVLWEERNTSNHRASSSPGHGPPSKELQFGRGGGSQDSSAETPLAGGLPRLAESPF
Protocol: as §1, with “agonist, GCG-R” for “agonist, GLP-1R”, “with GCG-R” for “with GLP-1R”, “activity assay” for “activity test”, “evaluating GCG” for “evaluating GLP-1”
A CHO-K1 cell line stably expressing GCG-R was used. The stable cells were stimulated with agonists at different concentrations, and the relative luminescence units after stimulation at each concentration were measured to calculate the EC50 value of the agonist.

Structure (SMILES)	half-life [1]	half-lives [1]	EC50 [2]	EC50 [3]
CC(C)C[C@H](NC(=O)[C@H](CC(C)C)NC(=O)[C@H](Cc1c[nH]c2ccccc12)NC(=O)[C@H](CCC(=O)O)NC(=O)[C@@H](NC(=O)[C@H](Cc1ccccc1)NC(=O)[C@H](CCC(=O)O)NC(=O)[C@H](CCCCNC(=O)COCCOCCOCCOCCOCCNC(=O)CCC[C@H](NC(=O)CCCCCCCCCCCCCCCCCCC(=O)O)C(=O)O)NC(=O)[C@H](C)NC(=O)[C@H](CCCCN)NC(=O)[C@H](CCCCN)NC(=O)[C@H](CCC(=O)O)NC(=O)[C@H](CC(=O)O)NC(=O)[C@H](CC(C)C)NC(=O)[C@H](Cc1ccc(O)cc1)NC(=O)[C@H](CCCCN)NC(=O)[C@H](CO)NC(=O)[C@H](Cc1ccc(O)cc1)NC(=O)[C@H](CC(=O)O)NC(=O)[C@H](CO)NC(=O)[C@@H](NC(=O)C(C)(Cc1ccccc1)NC(=O)[C@@H](NC(=O)CNC(=O)[C@H](CCC(N)=O)NC(=O)C(C)(C)NC(=O)[C@@H](N)Cc1c[nH]cn1)[C@@H](C)O)[C@@H](C)O)C(C)C)C(=O)N[C@@H](CCC(=O)O)C(=O)NCCCCC(=O)N1CCC[C@H]1C(=O)N[C@@H](CO)C(=O)N[C@@H](CO)C(=O)NCC(=O)N[C@@H](C)C(=O)N1CCC[C@H]1C(=O)N1CCC[C@H]1C(=O)N1CCC[C@H]1C(=O)N[C@@H](CO)C(N)=O (some centres unmarked) [Compound 6]	125 h	greater than 100 hours	0.0809 nM	2.1 nM
CC(C)C[C@H](NC(=O)[C@H](CC(C)C)NC(=O)[C@H](Cc1c[nH]c2ccccc12)NC(=O)[C@H](CCC(=O)O)NC(=O)[C@@H](NC(=O)[C@H](Cc1ccccc1)NC(=O)[C@H](CCC(=O)O)NC(=O)[C@H](CCCCNC(=O)COCCOCCOCCOCCOCCNC(=O)CCC[C@H](NC(=O)CCCCCCCCCCCCCCCCCCC(=O)O)C(=O)O)NC(=O)[C@H](C)NC(=O)[C@H](CCCCN)NC(=O)[C@H](CCCCN)NC(=O)[C@H](CCC(=O)O)NC(=O)[C@H](CC(=O)O)NC(=O)[C@H](CC(C)C)NC(=O)[C@H](Cc1ccc(O)cc1)NC(=O)[C@H](CCCCN)NC(=O)[C@H](CO)NC(=O)[C@H](Cc1ccc(O)cc1)NC(=O)[C@H](CC(=O)O)NC(=O)[C@H](CO)NC(=O)[C@@H](NC(=O)C(C)(Cc1ccccc1F)NC(=O)[C@@H](NC(=O)CNC(=O)[C@H](CCC(N)=O)NC(=O)C(C)(C)NC(=O)[C@@H](N)Cc1c[nH]cn1)[C@@H](C)O)[C@@H](C)O)C(C)C)C(=O)N[C@@H](CCC(=O)O)C(=O)NCCCCC(=O)N1CCC[C@H]1C(=O)N[C@@H](CO)C(=O)N[C@@H](CO)C(=O)NCC(=O)N[C@@H](C)C(=O)N1CCC[C@H]1C(=O)N1CCC[C@H]1C(=O)N1CCC[C@H]1C(=O)N[C@@H](CO)C(N)=O (some centres unmarked) [Compound 10]	136 h	greater than 100 hours	0.0755 nM	1.2 nM

— patent EP4806912A1, “DUAL AGONIST COMPOUND” (Chengdu Aoda Biotechnology Co., Ltd, priority 2023, dated 2025)
